The experiment has as its target b-Raf (Homo sapiens, UniProt P15056). Briefly: b-Raf inhibition assay (IκBα substrate, 384-well plate). The class given is biochemical. Here is the method: Compounds of the invention are tested for their ability to inhibit the activity of b-Raf. The assay is carried out in 384-well MaxiSorp plates (NUNC) with black walls and clear bottom. The substrate, IκBα is diluted in DPBS (1:750) and 15 μl is added to each well. The plates are incubated at 4° C. overnight and washed 3 times with TBST (25 mM Tris, pH 8.0, 150 mM NaCl and 0.05% Tween-20) using the EMBLA plate washer. Plates are blocked by Superblock (15 μl/well) for 3 hours at room temperature, washed 3 times with TBST and pat-dried. Assay buffer containing 20 μM ATP (10 μl) is added to each well followed by 100 nl or 500 nl of compound. B-Raf is diluted in the assay buffer (1 μl into 25 μl) and 10 μl of diluted b-Raf is added to each well ([…]). The plates are incubated at room temperature for 2.5 hours. The kinase reaction is stopped by washing the plates 6 times with TBST. Phosph-IκBα (Ser32/36) antibody is diluted in Superblock (1:10,000) and 15 μl is added to each well. The plates are incubated at 4° C. overnight and washed 6 times with TBST. AP-conjugated goat-anti-mouse IgG is diluted in Superblock (1:1,500) and 15 μl is added to each well. Plates are incubated at room temperature for 1 hour and washed 6 times with TBST. […] Plates are read on Acquest or Analyst GT using a Fluorescence Intensity Nanxin BBT anion (505 dichroic mirror).

b-Raf, sequence (P15056 whole entry): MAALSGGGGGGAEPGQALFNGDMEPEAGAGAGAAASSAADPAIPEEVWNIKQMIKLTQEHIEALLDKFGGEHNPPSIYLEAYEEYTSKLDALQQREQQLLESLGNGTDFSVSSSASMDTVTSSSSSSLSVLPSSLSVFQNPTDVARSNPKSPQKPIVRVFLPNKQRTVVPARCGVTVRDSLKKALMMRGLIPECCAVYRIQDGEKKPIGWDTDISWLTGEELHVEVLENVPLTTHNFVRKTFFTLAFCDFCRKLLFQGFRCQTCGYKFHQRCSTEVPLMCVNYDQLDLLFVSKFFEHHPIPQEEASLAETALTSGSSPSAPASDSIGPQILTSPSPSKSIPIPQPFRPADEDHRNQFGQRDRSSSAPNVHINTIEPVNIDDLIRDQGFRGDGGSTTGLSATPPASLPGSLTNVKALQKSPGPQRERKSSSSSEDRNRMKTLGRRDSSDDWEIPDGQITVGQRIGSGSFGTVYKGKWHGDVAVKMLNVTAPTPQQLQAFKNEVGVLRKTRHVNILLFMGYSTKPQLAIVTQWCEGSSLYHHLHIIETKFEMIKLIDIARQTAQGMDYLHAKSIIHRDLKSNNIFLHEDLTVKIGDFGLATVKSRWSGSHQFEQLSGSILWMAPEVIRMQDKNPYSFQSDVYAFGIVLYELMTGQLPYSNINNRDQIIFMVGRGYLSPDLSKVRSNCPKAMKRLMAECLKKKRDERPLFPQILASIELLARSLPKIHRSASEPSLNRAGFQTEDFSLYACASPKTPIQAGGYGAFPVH

A word on the IC50: it is the concentration needed to halve the response being measured. A lower IC50 goes with higher potency. `CN1CCN(Cc2ccc(C(=O)Nc3cccc(Nc4ccccc4-c4cc(Nc5cccc(N(C)C)c5)ncn4)c3)cc2)CC1` [Example 1, N-(3-{2-[6-(3-Dimethylamino-phenylamino)-pyrimidin-4-yl]-phenylamino}-phenyl)-4-(4-methyl-piperazin-1-ylmethyl)-benzamide] had an IC50 of 0.667 µM.

The values are drawn from patent US7189729B2, “Methods and compositions as protein kinase inhibitors” (IRM LLC, priority 2003, dated 2007).
